Experimental findings from patent US20110200554A1, “THERAPEUTIC AGENT FOR HEPATITIS C” (priority 2008, published 2011) are described below.

Data set [1] has as its system Renilla luciferase driven by EMCV IRES in OR6c cells. Kind of data set: Control transfection: EMCV IRES-driven Renilla luciferase plasmid pEMCV-RL in cured OR6c cells. As to conditions: cured OR6c cells transfected with pEMCV-RL, HU added 24 h after transfection, 72 h culture. The data set is classed as cell-based, human. How it is done:
In accordance with Patent Literature 1, a plasmid encoding Renilla luciferase driven by the internal ribosome entry site (IRES) of encephalomyocarditis virus (EMCV) was transfected into OR6c cells which were OR6 cells cured by IFN, with FuGENE6 reagent (produced by Roche Diagnostics), and 24 hours after transfection, the cells were treated with various concentrations of HU and cultured for 72 hours.

For another data set, the system named is HCV RNA (virus level). Briefly: Clinical test in patients with intractable hepatitis C, serum HCV RNA by real-time PCR (TaqMan). It counts as in vivo, human. Conditions: oral 1500 mg/day for 4 weeks. Here is the method:
Serum HCV RNA level (log IU/ml) was measured every week from before the administration to the end of the therapy by the real-time detection PCR method using TaqMan (trade name) probe.
In general terms: Quantitative PCR measures a nucleic acid by following its amplification.

The subject of data set [2] is genome-length HCV RNA replication in OR6 cells. Kind of data set: Genome-length HCV replication assay in OR6 cells (Renilla luciferase reporter). It counts as cell-based, Hepatitis C virus (HCV). Conditions: luciferase activity. The text has this:
Briefly, the cells described in Patent Literature 1 used for the screening were as follows: That is, the cells were those obtained by introducing, into Oc cells (FERM P-20517) originated from a human hepatocarcinoma cell line HuH-7, a plasmid containing full length of HCV genome, luciferase gene as a reporter gene and neomycin-resistant gene (neomycin phosphotransferase gene) as a selection marker gene. More specifically, the cells (OR6 cells) were the Oc cells (FERM P-20517) originated from a human hepatocarcinoma cell line HuH-7, into which a plasmid having an RNA containing, from the 5′-end, internal ribosome entry site (IRES) sequence of HCV, luciferase gene, neomycin phosphotransferase gene, IRES sequence originated from encephalomyocarditis virus (EMCV), HCV open reading frame sequence and HCV 3′ untranslated sequence. After culturing the OR6 cells in a culture medium containing a test compound whose anti-viral activity against HCV (that is, therapeutic effect against hepatitis C) is to be examined, the luciferase activity of the cells is measured. […] Therefore, the lower the luciferase activity measured, the higher the anti-HCV activity. In Patent Literature 1, it was experimentally confirmed that correlation between the luciferase activity measured and the amount of HCV RNA is very high, so that it has been confirmed that this system has a high reliability. […]
On the technique in general: Reporter assays use an easily measured gene product as a stand-in for the process of interest.

The next data set relates to OR6 cells. Briefly: Cell viability, viable cell count after trypan blue staining. The data set is classed as cell-based, human. As to conditions: 72 h, HU at each concentration up to 100 μmol/L. Here is the method: In order to examine the cytotoxic effects of HU on OR6 cells, the cells were seeded onto dishes of diameter 95 mm at a density of 400,000 cells per dish, and cultured for 72 hours after adding HU to a concentration of 0, 50, 100, and 150 μmol/L, respectively. The number of viable cells was then counted by a hematocytometer after staining with trypan blue dye.

[3] abbreviates: serum HCV RNA (log IU/ml), 12 patients.

As to hydroxyurea [HU], in data set [1], the “inhibition of Renilla fluorescence (control plasmid)” value is reported as “did not inhibit”. For the same substance, the “patients with decrease in the virus level (HCV RNA)” value in the data set with HCV RNA (virus level) (9 out of 12 patients, intractable hepatitis C, serogroup 1, high virus level) is on record as 75%. In the data set with HCV RNA (virus level) (setting [3]), the “decrease in the virus level, average” value was found to be 0.22 Log and the “decrease in the virus level, maximum” value stood at 0.37 Log. For the same substance, the IC50 in data set [2] (72-h treatment, HU up to 150 μmol/L, read-out: 50% replication inhibition concentration) turned out to be 60 µM. The “number of viable cells compared to untreated cells” value with OR6 cells is given as “no significant difference”.
As to interferon α, the 50% inhibition concentration in data set [2] (72 h treatment) is given as 1.2 IU/mL.
